Species on record: Rattus norvegicus
Assay: Open TG-GATES - Regimen: Single
Assay type: toxicity, organism-based, Sprague-Dawley
Design: regimen Single, gender Male, age 6 weeks
Conditions: in vivo, po, 0 mg/kg, route gavage, dose level Control; for APTT / Bas / Eos / Fbg / Hb / Ht / Lym / MCH / MCHC / MCV / Mono / Neu / PT / RBC / Ret / WBC / Plat: tissue Blood; for KIDNEY_L / KIDNEY_R / KIDNEY_TOTAL: tissue Kidney; for LIVER: tissue Liver

## C[C@H](CS)C(=O)N1CCC[C@H]1C(=O)O [CAPTOPRIL]
3 h
  TERMINAL_BW: 220.9 g
  APTT: 16.4 s
  Bas: 0%
  Eos: 1.2%
  Fbg: 204.8 mg/dL
  Hb: 13.1 g/dL
  Ht: 39.7%
  Lym: 79.2%
  MCH: 21.4 pg
  MCHC: 33.1%
  MCV: 64.5 fL
  Mono: 6%
  Neu: 14%
  PT: 11.7 s
  RBC: 615.2 x10_4/ul
  Ret: 7.5%
  WBC: 110.3 x10_2/uL
  KIDNEY_L: 0.9 g
  KIDNEY_R: 1 g
  KIDNEY_TOTAL: 1.9 g
3 h, tissue Plasma
  ALP: 902.4 IU/L
  ALT: 34 IU/L
  AST: 65.2 IU/L
  BUN: 13 mg/dL
  CRE: 0.5 mg/dL
  DBIL: 0.018 mg/dL
  GLC: 193.6 mg/dL
  IP: 9.9 mg/dL
  K: 5.1 meq/L
  LDH: 84.6 IU/L
  Na: 137.6 meq/L
  PL: 127.6 mg/dL
  RALB: 3.7 g/dL
  TBIL: 0.4 mg/dL
  TC: 70.8 mg/dL
  TG: 42.6 mg/dL
  TP: 5.4 g/dL
  gamma-GTP: 1.6 IU/L
6 h
  TERMINAL_BW: 220.4 g
  APTT: 15.7 s
  Bas: 0%
  Eos: 1.2%
  Hb: 13.5 g/dL
  Ht: 41.1%
  Lym: 76.8%
  MCH: 21.1 pg
  MCHC: 32.9%
  MCV: 64.3 fL
  Mono: 6.2%
  Neu: 16.2%
  PT: 11.8 s
  Plat: 118.9 x10_4/uL
  RBC: 639.6 x10_4/ul
  Ret: 7.5%
  WBC: 124.4 x10_2/uL
  KIDNEY_L: 1 g
  KIDNEY_R: 1 g
  KIDNEY_TOTAL: 2 g
6 h, tissue Plasma
  ALP: 725.4 IU/L
  ALT: 31.2 IU/L
  AST: 58.4 IU/L
  BUN: 11.8 mg/dL
  CRE: 0.6 mg/dL
  DBIL: 0.012 mg/dL
  GLC: 198.2 mg/dL
  K: 4.7 meq/L
  LDH: 75.6 IU/L
  Na: 139 meq/L
  PL: 135.6 mg/dL
  RALB: 3.6 g/dL
  TBIL: 0.3 mg/dL
  TC: 76.8 mg/dL
  TG: 60 mg/dL
  TP: 5.3 g/dL
  gamma-GTP: 1.4 IU/L
9 h
  TERMINAL_BW: 222.4 g
  APTT: 16.3 s
  Bas: 0%
  Eos: 1%
  Fbg: 207.2 mg/dL
  Hb: 12.9 g/dL
  Ht: 39.1%
  Lym: 79.8%
  MCH: 21.2 pg
  MCHC: 33%
  MCV: 64.5 fL
  Mono: 5.4%
  Neu: 14%
  PT: 12.2 s
  Plat: 118.8 x10_4/uL
  RBC: 607 x10_4/ul
  Ret: 7.9%
  WBC: 89.1 x10_2/uL
  KIDNEY_L: 1 g
  KIDNEY_R: 1 g
  KIDNEY_TOTAL: 2.1 g
  LIVER: 9.6 g
9 h, tissue Plasma
  ALP: 868 IU/L
  ALT: 33.4 IU/L
  AST: 60.2 IU/L
  BUN: 13.4 mg/dL
  CRE: 0.4 mg/dL
  DBIL: 0.078 mg/dL
  GLC: 200 mg/dL
  IP: 10 mg/dL
  K: 4.9 meq/L
  LDH: 53.8 IU/L
  Na: 137.8 meq/L
  PL: 132.2 mg/dL
  RALB: 3.6 g/dL
  TBIL: 0.4 mg/dL
  TC: 68.8 mg/dL
  TG: 64.8 mg/dL
  TP: 5.4 g/dL
  gamma-GTP: 2 IU/L
24 h
  TERMINAL_BW: 235.3 g
  APTT: 15.7 s
  Bas: 0%
  Eos: 1.4%
  Hb: 13.4 g/dL
  Ht: 40.3%
  Lym: 77.6%
  MCH: 21.7 pg
  MCHC: 33.1%
  MCV: 65.6 fL
  Mono: 5.8%
  Neu: 15.4%
  PT: 11.4 s
  Plat: 115.5 x10_4/uL
  RBC: 614.6 x10_4/ul
  Ret: 9.1%
  WBC: 114 x10_2/uL
  KIDNEY_L: 1 g
  KIDNEY_R: 1 g
  KIDNEY_TOTAL: 2 g
  LIVER: 11.7 g
24 h, tissue Plasma
  ALP: 943.6 IU/L
  ALT: 39 IU/L
  AST: 65.2 IU/L
  BUN: 18.2 mg/dL
  CRE: 0.6 mg/dL
  Ca: 11 mg/dL
  DBIL: 0.082 mg/dL
  GLC: 199.8 mg/dL
  IP: 8.5 mg/dL
  K: 4.6 meq/L
  Na: 140.2 meq/L
  PL: 146 mg/dL
  RALB: 3.9 g/dL
  TBIL: 0.3 mg/dL
  TC: 76.8 mg/dL
  TG: 95.8 mg/dL
  TP: 5.7 g/dL

Source: ChEMBL document CHEMBL3885861, “Open TG-GATES”
